Laboratory results as given in paper PMC10814857, “Functional Classification and Interaction Selectivity Landscape of the Human SH3 Domain Superfamily” (Cells, 2024).
Peptide text beside a SMILES is read from it.

Assays:
Test in all cases: Fluorescence polarization SH3 domain-PRP binding
[1] = molecular target: T1, NCK1-3 SH3 domain (aa 190–252) (Homo sapiens, UniProt P16333); settings: NCK1-3 (wt); FP, 0.2 µM fluorescein-labeled peptide, SH3 domain 0-200 µM, Tris/HCl pH 7.5, 25 °C, quadratic fit; read-out: Kd
T1 construct: 190–252; GST (N); made in house; host or cells: Escherichia coli CodonPlus, Rosetta, BL21(DE3)
Method: (§1) The interaction between fluorescein-labeled proline-rich peptides (0.2 µM) and increasing concentrations of SH3 domains (ranging from 0 to 200 µM) was measured in a buffer (containing 30 mM Tris/HCl (pH 7.5), 5 mM MgCl2, and 3 mM DTT at 25 °C) in a total volume of 200 µL using a Fluoromax 4 fluorimeter in polarization mode and a quartz glass fluorescence cuvette (Hellma Ultra-Micro Cuvette 105.250-QS, Thermo Fisher Scientific, Waltham, MA USA). Excitation was performed at 470 nm and emission was measured at 560 nm. Dissociation constants (Kd) were determined by fitting the concentration-dependent binding curve to a quadratic ligand binding equation.
(§2) Fluorescence polarization measurements were performed to determine the binding affinities of SH3 domain–PRP interaction pairs from the dot blot analysis. SH3 proteins were titrated at increasing concentrations against fluorescent PRPs, which were kept at a constant concentration of 0.2 µM. GRB2-2^W193K, which is defective in the binding of PRPs such as RP1, was used as a negative control as previously described. […] The resulting data (Figure S6) allowed the evaluation of equilibrium dissociation constants (Kd) for 45 interactions between the SH3 domains and the PRPs (Figure 2B; Table S6).
(§3) Figure S6. Interactions of the SH3 domains with fluorescent PRPs measured by fluorescence polarization.
(§4) Fluorescent peptides (0.2 µM) were titrated with increasing concentrations of the corresponding SH3 domains.
(§5) GRB2-2W193K, defective in the binding of PRPs such as RP1, was used as a negative control as previously described. The x-axis represents SH3 domain concentrations as GST fusion proteins in µM, while the y-axis represents fluorescence polarization. The equilibrium dissociation constants (Kd) for the respective measurements were determined by fitting the titration curves to a quadratic ligand-binding equation (solid lines). All Kd values are […]
(§6) Error bars are derived from the fitting errors.

[2] = molecular target: T2, SH3GLB1 SH3 domain (aa 305-365) (Homo sapiens, UniProt Q9Y371); settings: FP, 0.2 µM fluorescein-labeled peptide, SH3 domain 0-200 µM, Tris/HCl pH 7.5, 25 °C, quadratic fit
T2 construct: 305-365; GST (N); made in house; host or cells: Escherichia coli CodonPlus, Rosetta, BL21(DE3)
T2 sequence (Q9Y371 305-365): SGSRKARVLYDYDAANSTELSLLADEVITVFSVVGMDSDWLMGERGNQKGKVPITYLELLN
Method: as §1, §2, §3, §4, §5, §6

[3] = molecular target: T3, RASA1 SH3 domain (aa 279–341) (Homo sapiens, UniProt P20936); settings: FP, 0.2 µM fluorescein-labeled peptide, SH3 domain 0-200 µM, Tris/HCl pH 7.5, 25 °C, quadratic fit
T3 construct: 279–341; GST (N); made in house; host or cells: Escherichia coli CodonPlus, Rosetta, BL21(DE3)
T3 sequence (P20936 279-341): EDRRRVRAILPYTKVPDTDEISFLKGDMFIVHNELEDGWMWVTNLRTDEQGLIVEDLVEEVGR
Method: as §1, §2, §3, §4, §5, §6

[4] = molecular target: T4, SRC SH3 domain (aa 77-140) (Homo sapiens, UniProt P12931); settings: FP, 0.2 µM fluorescein-labeled peptide, SH3 domain 0-200 µM, Tris/HCl pH 7.5, 25 °C, quadratic fit
T4 construct: 77-140; GST (N); made in house; host or cells: Escherichia coli CodonPlus, Rosetta, BL21(DE3)
T4 sequence (P12931 77-140 limits assumed): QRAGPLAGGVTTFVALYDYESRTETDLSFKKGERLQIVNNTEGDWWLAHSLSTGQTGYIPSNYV
Method: as §1, §2, §3, §4, §5, §6

[5] = molecular target: T5, NCK1-2 SH3 domain (aa 106-165) (Homo sapiens, UniProt P16333); settings: FP, 0.2 µM fluorescein-labeled peptide, SH3 domain 0-200 µM, Tris/HCl pH 7.5, 25 °C, quadratic fit, read-out: Kd
T5 construct: 106-165; GST (N); made in house; host or cells: Escherichia coli CodonPlus, Rosetta, BL21(DE3)
Method: as §1, §2, §3, §4, §5, §6

[6] = molecular target: T6, ITSN1-4 SH3 domain (aa 1070-1138) (Homo sapiens, UniProt Q15811); settings: FP, 0.2 µM fluorescein-labeled peptide, SH3 domain 0-200 µM, Tris/HCl pH 7.5, 25 °C, quadratic fit
T6 construct: 1070-1138; GST (N); made in house; host or cells: Escherichia coli CodonPlus, Rosetta, BL21(DE3)
T6 sequence (Q15811 1070-1138): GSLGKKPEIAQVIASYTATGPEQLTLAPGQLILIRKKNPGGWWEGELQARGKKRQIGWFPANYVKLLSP
Method: as §1, §2, §3, §4, §5, §6

[7] = molecular target: T7, SH3PXD2A-1 SH3 domain (aa 166-225) (Homo sapiens, UniProt Q5TCZ1); settings: FP, 0.2 µM fluorescein-labeled peptide, SH3 domain 0-200 µM, Tris/HCl pH 7.5, 25 °C, quadratic fit
T7 construct: 166-225; GST (N); made in house; host or cells: Escherichia coli CodonPlus, Rosetta, BL21(DE3)
T7 sequence (Q5TCZ1 166-225): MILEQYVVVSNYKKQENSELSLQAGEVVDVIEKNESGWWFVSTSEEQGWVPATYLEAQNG
Method: as §1, §2, §3, §4, §5, §6

[8] = molecular target: T8, ITSN1-5 SH3 domain (aa 1155-1214) (Homo sapiens, UniProt Q15811); settings: FP, 0.2 µM fluorescein-labeled peptide, SH3 domain 0-200 µM, Tris/HCl pH 7.5, 25 °C, quadratic fit
T8 construct: 1155-1214; GST (N); made in house; host or cells: Escherichia coli CodonPlus, Rosetta, BL21(DE3)
T8 sequence (Q15811 1155-1214): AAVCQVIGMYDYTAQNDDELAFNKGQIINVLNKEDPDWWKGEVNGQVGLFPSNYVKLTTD
Method: as §1, §2, §3, §4, §5, §6

[9] = molecular target: T9, SORBS1-1 SH3 domain (aa 793-852) (Homo sapiens, UniProt Q9BX66); settings: FP, 0.2 µM fluorescein-labeled peptide, SH3 domain 0-200 µM, Tris/HCl pH 7.5, 25 °C, quadratic fit
T9 construct: 793-852; GST (N); made in house; host or cells: Escherichia coli CodonPlus, Rosetta, BL21(DE3)
T9 sequence (Q9BX66 793-852): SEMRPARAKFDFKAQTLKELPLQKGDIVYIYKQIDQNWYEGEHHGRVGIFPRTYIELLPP
Method: as §1, §2, §3, §4, §5, §6

[10] = molecular target: T10, RIMBP3B-1 SH3 domain (aa 832-899) (Homo sapiens, UniProt A6NNM3); settings: FP, 0.2 µM fluorescein-labeled peptide, SH3 domain 0-200 µM, Tris/HCl pH 7.5, 25 °C, quadratic fit
T10 construct: 832-899; GST (N); made in house; host or cells: Escherichia coli CodonPlus, Rosetta, BL21(DE3)
T10 sequence (A6NNM3 832-899): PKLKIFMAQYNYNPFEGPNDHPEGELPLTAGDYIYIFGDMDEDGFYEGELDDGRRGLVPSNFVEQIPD
Method: as §1, §2, §3, §4, §5, §6

[11] = molecular target: T11, NCK1-1 SH3 domain (aa 2-61) (Homo sapiens, UniProt P16333); settings: FP, 0.2 µM fluorescein-labeled peptide, SH3 domain 0-200 µM, Tris/HCl pH 7.5, 25 °C, quadratic fit, read-out: Kd
T11 construct: 2-61; GST (N); made in house; host or cells: Escherichia coli CodonPlus, Rosetta, BL21(DE3)
Method: as §1, §2, §3, §4, §5, §6

NPHP1 SH3 domain = molecular target: T12, NPHP1 SH3 domain (Homo sapiens, UniProt O15259); settings: FP, 0.2 µM fluorescein-labeled peptide, SH3 domain 0-200 µM, Tris/HCl pH 7.5, 25 °C, quadratic fit
T12 construct: GST (N); made in house; host or cells: Escherichia coli CodonPlus, Rosetta, BL21(DE3)
T12 sequence (O15259 152-212 limits assumed): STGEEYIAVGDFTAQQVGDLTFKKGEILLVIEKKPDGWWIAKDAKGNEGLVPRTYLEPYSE
Method: as §1, §2, §3, §4, §5, §6

Row | Structure (SMILES) | Kd [1] | Kd [2] | Kd [3] | Kd [4] | Kd [5] | Kd [6] | Kd [7] | Kd [8] | Kd [9] | Kd [10] | Kd [11] | Kd (NPHP1 SH3 domain)
1 | CC[C@H](C)[C@H](NC(=O)[C@H](C)NC(=O)[C@@H]1CCCN1C(=O)[C@@H]1CCCN1C(=O)[C@H](CO)NC(=O)[C@H](CC(=O)O)NC(=O)[C@@H](N)CC(C)C)C(=O)N1CCC[C@H]1C(=O)N1CCC[C@H]1C(=O)N[C@@H](CCCNC(=N)N)C(=O)N[C@@H](CCC(N)=O)C(=O)N1CCC[C@H]1C(=O)N[C@H](C(=O)N[C@@H](CO)C(=O)N[C@@H](CCCCN)C(=O)O)[C@@H](C)O [Peptide P4] (H-LDSPPAIPPRQPTSK-OH) | > 200 µM | > 200 µM | > 200 µM | > 200 µM | > 200 µM | > 200 µM | > 200 µM | 12 µM | > 200 µM | > 200 µM | > 200 µM | > 200 µM
2 | C[C@H](N)C(=O)N[C@@H](Cc1ccccc1)C(=O)N[C@@H](Cc1ccccc1)C(=O)N1CCC[C@H]1C(=O)N[C@@H](CC(N)=O)C(=O)N[C@@H](CO)C(=O)N1CCC[C@H]1C(=O)N[C@@H](CO)C(=O)N1CCC[C@H]1C(=O)N[C@@H](Cc1ccccc1)C(=O)N[C@H](C(=O)N1CCC[C@H]1C(=O)N1CCC[C@H]1C(=O)N1CCC[C@H]1C(=O)N1CCC[C@H]1C(=O)N[C@@H](CCC(N)=O)C(=O)N[C@H](C(=O)N1CCC[C@H]1C(=O)N[C@@H](CO)C(=O)N1CCC[C@H]1C(=O)N[C@@H](Cc1c[nH]cn1)C(=O)NCC(=O)N[C@H](C(=O)O)[C@@H](C)O)[C@@H](C)O)[C@@H](C)O [Peptide P7] (H-AFFPNSPSPFTPPPPQTPSPHGT-OH) | > 200 µM | > 200 µM | > 200 µM | 13.3 µM | > 200 µM | > 200 µM | > 200 µM | > 200 µM | 13.2 µM | 15 µM | > 200 µM | > 200 µM
3 | CC[C@H](C)[C@H](NC(=O)[C@H](CCCCN)NC(=O)[C@H](CO)NC(=O)[C@@H]1CCCN1C(=O)[C@H](CO)NC(=O)[C@H](CO)NC(=O)[C@H](CCC(=O)O)NC(=O)[C@H](C)NC(=O)[C@@H]1CCCN1C(=O)[C@H](C)NC(=O)[C@H](CO)NC(=O)[C@H](CCC(=O)O)NC(=O)[C@@H]1CCCN1C(=O)[C@H](CCCNC(=N)N)NC(=O)[C@H](CCCNC(=N)N)NC(=O)[C@H](CCCNC(=N)N)NC(=O)[C@@H]1CCCN1C(=O)[C@@H]1CCCN1C(=O)[C@@H](NC(=O)[C@@H]1CCCN1C(=O)[C@@H]1CCCN1C(=O)[C@@H]1CCCN1C(=O)[C@@H](NC(=O)[C@@H]1CCCN1C(=O)[C@@H](NC(=O)[C@@H](N)CCC(=O)O)C(C)C)C(C)C)C(C)C)C(=O)O [Peptide P3] (H-EVPVPPPVPPRRRPESAPAESSPSKI-OH) | > 200 µM | > 200 µM | > 200 µM | 2 µM | > 200 µM | > 200 µM | 18 µM | > 200 µM | > 200 µM | > 200 µM | > 200 µM | > 200 µM

Second part, the compound after the results:

Row | Kd [1] | Kd [2] | Kd [3] | Kd [4] | Kd [5] | Kd [6] | Kd [7] | Kd [8] | Kd [9] | Kd [10] | Kd [11] | Kd (NPHP1 SH3 domain) | Structure (SMILES)
4 | > 200 µM | > 200 µM | > 200 µM | > 200 µM | > 200 µM | > 200 µM | > 200 µM | > 200 µM | > 200 µM | > 200 µM | > 200 µM | > 200 µM | CC(C)C[C@H](NC(=O)[C@H](Cc1c[nH]cn1)NC(=O)[C@H](CC(C)C)NC(=O)[C@@H]1CCCN1C(=O)[C@H](CO)NC(=O)[C@H](CO)NC(=O)[C@@H](N)CO)C(=O)N[C@@H](CCC(N)=O)C(=O)N1CCC[C@H]1C(=O)N1CCC[C@H]1C(=O)N1CCC[C@H]1C(=O)N[C@@H](CC(C)C)C(=O)NCC(=O)N[C@@H](CCCCN)C(=O)N[C@@H](CCCCN)C(=O)O [Peptide P6] (H-SSSPLHLQPPPLGKK-OH; N-terminus and C-terminus assumed)
5 | > 200 µM | > 200 µM | > 200 µM | > 200 µM | > 200 µM | > 200 µM | > 200 µM | > 200 µM | > 200 µM | > 200 µM | > 200 µM | > 200 µM | CC(C)C[C@H](NC(=O)[C@@H]1CCCN1C(=O)[C@@H]1CCCN1C(=O)[C@H](CO)NC(=O)[C@@H]1CCCN1C(=O)[C@H](CC(C)C)NC(=O)[C@H](Cc1c[nH]cn1)NC(=O)[C@@H](N)CCCNC(=N)N)C(=O)N[C@H](C(=O)N[C@@H](CCC(N)=O)C(=O)O)[C@@H](C)O [Peptide P8] (H-RHLPSPPLTQ-OH; N-terminus and C-terminus assumed)
